Assay [1] concerns histamine-induced vascular permeability in guinea pig conjunctiva. In words: histamine-induced vascular permeability in guinea pig conjunctiva, topical ocular pretreatment. It is filed as in vivo, guinea pig (Male Dunkin Hartley). The protocol:
The topical ocular antihistaminic effect of emedastine difumarate was assessed in a model of histamine induced vascular permeability in guinea pig conjunctiva. The potency of emedastine difumarate in this model was then compared with those of reference antihistamines.
Male Dunkin Hartley Viral Antibody Free outbred guinea pigs (Charles River Labs, Portage, Mich.), weighing approximately 250-350 grams (6/group) were injected intravenously (i.v.) via the marginal ear vein with 1.0 mL of Evans Blue dye (1.0 mg/mL). Forty-five (45) minutes post dye injection, 20 μL of test compound or saline vehicle was applied topically to one eye of each experimental animal. […] Responses were quantitated as described by Yanni et al. in Int. Arch. Allergy Immunol., 101:102-106 (1993). Response scores from the treated groups were then compared with scores obtained in the saline-treated group using Dunnett's t test (Dunnett C. W., "A multiple comparison procedure for comparing treatments with a control." J. Am. Stat. Assoc. 50:1096-1121(1955)). Regression analysis was used to determine relative potency (Bliss, C. and E. Gjorgy. In Vitamin Methods, Vol. 2, pp. 445-610, Academic Press, Inc., New York, 1951.).

The conditions of assay [2]: as compared to systemic activity; cited from earlier work.
A further assay relates to allergic conjunctivitis. The note with it: without the addition of a vasoconstrictor; cited from earlier work.
Setting [3] is: 1 min pretreatment, 0.001 wt %, ketotifen/pheniramine experiment (NaCl 276 ± 10).
Where [4] appears, read: 1 min pretreatment, 0.01 wt %, ketotifen/pheniramine experiment (NaCl 276 ± 10).
[5] abbreviates: 1 min pretreatment, 0.1 wt %, ketotifen/pheniramine experiment (NaCl 276 ± 10).
The mark [6] stands for this setting: 1 min pretreatment, relative to emedastine difumarate = 1.0, (95% Confidence Limits).
Where [7] appears, read: 30 min pretreatment, relative to emedastine difumarate = 1.0, (95% Confidence limits).

These results are taken from patent publication US5668133A, “Ophthalmic compositions comprising emedastine and methods for their use” (priority 1995, dated 1997).

As for `CN1CCC(=C2c3ccccc3CC(=O)c3sccc32)CC1` [Ketotifen, reference compound], the “Wheal Area × Intensity” value is 210 ± 11 in assay [1] (1 min pretreatment, 0.0001 wt %, ketotifen/pheniramine experiment (NaCl 276 ± 10)); 138 ± 21 in assay [1] (setting [3]); 89 ± 22 in assay [1] (setting [4]); 33 ± 22 in assay [1] (setting [5]). The Potency in assay [1] (setting [6]) is on record as 0.288; in assay [1] (topical, 0.5 h) it was 3.72 (0.973-11.892). Also, the “Wheal Area × Intensity (x ± S.D.)” value came out at 157 ± 66 in assay [1] (30 min pretreatment, 0.0000007 wt %, ketotifen experiment (NaCl 214 ± 41)); 108 ± 52 in assay [1] (30 min pretreatment, 0.000007 wt %, ketotifen experiment (NaCl 214 ± 41)); 61 ± 26 in assay [1] (30 min pretreatment, 0.00007 wt %, ketotifen experiment (NaCl 214 ± 41)).
`CN(C)CCC(c1ccc(Br)cc1)c1ccccn1` (stereo not shown) [Brompheniramine, reference compound]: the “Wheal Area × Intensity (X ± S.D.)” value in assay [1] (30 min pretreatment, 0.0001 wt %, brompheniramine experiment (NaCl 219 ± 20)) is 167 ± 26; in assay [1] (30 min pretreatment, 0.001 wt %, brompheniramine experiment (NaCl 219 ± 20)), 92 ± 44. Moreover, the “Wheal Area × Intensity (x ± S.D.)” value in assay [1] (30 min pretreatment, 0.01 wt %, brompheniramine experiment (NaCl 219 ± 20)) turned out to be 5 ± 8. Moreover, the Potency in assay [1] (setting [7]) is listed as 0.14 (0.078-0.263).
Turning to `c1ccc(CN(CC2=NCCN2)c2ccccc2)cc1` [Antazoline, reference compound], the “Wheal Area × Intensity” value stood at 244 ± 14 in assay [1] (1 min pretreatment, 0.0001 wt %, antazoline experiment (NaCl 285 ± 19)); 178 ± 42 in assay [1] (1 min pretreatment, 0.001 wt %, antazoline experiment (NaCl 285 ± 19)); 115 ± 6 in assay [1] (1 min pretreatment, 0.01 wt %, antazoline experiment (NaCl 285 ± 19)). Moreover, the values for the Potency in assay [1] (setting [6]) and in assay [1] (setting [7]) were 0.060 and around 0.00017, respectively. Further, the “Wheal Area × Intensity (x ± S.D.)” value in assay [1] (30 min pretreatment, 0.01 wt %, antazoline experiment (NaCl 287 ± 20)) is on record as 205 ± 61; in assay [1] (30 min pretreatment, 0.1 wt %, antazoline experiment (NaCl 287 ± 20)), 145 ± 26; in assay [1] (30 min pretreatment, 1.0 wt %, antazoline experiment (NaCl 287 ± 20)) it was 91 ± 27.
For the compound `CC(C)(C)c1ccc(C(O)CCCN2CCC(C(O)(c3ccccc3)c3ccccc3)CC2)cc1` (stereo not shown) [terfenadine], in assay [2], the local ocular activity result was “little or no local ocular activity”.
Turning to `CN1CCC[C@@H]1CCO[C@](C)(c1ccccc1)c1ccc(Cl)cc1` [Clemastine, reference compound], the “Wheal Area × Intensity (X ± S.D.)” value in assay [1] (30 min pretreatment, 0.00001 wt %, clemastine experiment (NaCl 350 ± 31)) is 283 ± 37; in assay [1] (30 min pretreatment, 0.0001 wt %, clemastine experiment (NaCl 350 ± 31)), 131 ± 36; in assay [1] (30 min pretreatment, 0.001 wt %, clemastine experiment (NaCl 350 ± 31)) it was 65 ± 28. Further, the “Wheal Area × Intensity (x ± S.D.)” value in assay [1] (30 min pretreatment, 0.01 wt %, clemastine experiment (NaCl 350 ± 31)) was 18 ± 8.
For `CN(C)CCC(c1ccc(Cl)cc1)c1ccccn1` (stereo not shown) [Chlorpheniramine, reference compound], the “Wheal Area × Intensity (X ± S.D.)” value in assay [1] (30 min pretreatment, 0.0001 wt %, chlorpheniramine experiment (NaCl 217 ± 35)) amounted to 161 ± 57; in assay [1] (30 min pretreatment, 0.001 wt %, chlorpheniramine experiment (NaCl 217 ± 35)), 76 ± 22. The “Wheal Area × Intensity (x ± S.D.)” value in assay [1] (30 min pretreatment, 0.01 wt %, chlorpheniramine experiment (NaCl 217 ± 35)) is on record as 9 ± 12. In assay [1] (setting [7]), the Potency was 0.13 (0.056-0.295).
In the case of `CCOC(=O)N1CCC(=C2c3ccc(Cl)cc3CCc3cccnc32)CC1` [loratadine], the local ocular activity entry in assay [2] is “greatly reduced local ocular activity”.
`C[C@@H]1CN([C@H]2CC[C@](C#N)(c3ccc(F)cc3)CC2)CC[C@]1(C(=O)O)c1ccccc1` [Levocabastine, reference compound]: the “clinical activity in patients with allergic conjunctivitis” value in the assay with allergic conjunctivitis is “exhibits clinical activity”. Besides, in assay [1] (0.05%, topically 1 minute before histamine injection), the “attenuation of histamine-induced vascular permeability response” value is “failed to attenuate significantly”. For the same compound, the “Wheal Area × Intensity” value in assay [1] (1 min pretreatment, 0.05 wt %, levocabastine experiment (NaCl 336 ± 78)) is recorded as 231 ± 58. Also, the “Wheal Area × Intensity (x ± S.D.)” value in assay [1] (30 min pretreatment, 0.0005 wt %, levocabastine/pheniramine experiment (NaCl 252 ± 30)) is on record as 189 ± 66; in assay [1] (30 min pretreatment, 0.005 wt %, levocabastine/pheniramine experiment (NaCl 252 ± 30)), 116 ± 67; in assay [1] (30 min pretreatment, 0.05 wt %, levocabastine/pheniramine experiment (NaCl 252 ± 30)), 56 ± 41. Also, the Potency in assay [1] (setting [7]) was 0.01 (0.006-0.038).
As for `COc1ccc(CCN2CCC(Nc3nc4ccccc4n3Cc3ccc(F)cc3)CC2)cc1` [astemizole], the local ocular activity result in assay [2] was “greatly reduced local ocular activity”.
`CN(C)CCC(c1ccccc1)c1ccccn1` (stereo not shown) [Pheniramine, reference compound]: the “Wheal Area × Intensity” value in assay [1] (setting [3]) is recorded as 181 ± 16; in assay [1] (setting [4]) it was 87 ± 40; in assay [1] (setting [5]), 59 ± 23. In addition, the Potency is on record as 0.130 in assay [1] (setting [6]) and around 0.0028 in assay [1] (setting [7]). The “Wheal Area × Intensity (x ± S.D.)” value in assay [1] (30 min pretreatment, 0.003 wt %, levocabastine/pheniramine experiment (NaCl 252 ± 30)) turned out to be 175 ± 53; in assay [1] (30 min pretreatment, 0.03 wt %, levocabastine/pheniramine experiment (NaCl 252 ± 30)) it was 122 ± 33.
